Experimental data as given in article PMC7503767, “Alkoxyamines Designed as Potential Drugs against Plasmodium and Schistosoma Parasites” (Molecules, 2020).
Where two headings read alike, the source gives them in different places. Marks after values point to notes of the source that are not given here.

How the values were obtained:
[1] = Cytotoxicity assay (MTT); details: African green monkey
Description: (§1) Vero cells were cultured in MEM (Dutscher, Brumath, France) supplemented with 10% fetal bovine serum, 1× non-essential amino acids, 100 U/mL, 100 µg/mL penicillin/streptomycin, and 2 mM L-glutamine at 37 °C in a humidified 5% CO2 atmosphere. […] At this time, each well was microscope-examined for detection of possible precipitate formation prior to remove the supernatant by flicking the plate. 100 µL of a 0.5 mg/mL PBS-dissolved MTT tetrazolium (stock solution at 5 mg/mL) was then added to each well [48]. The plates were then incubated for 1 h at 37 °C and 5% CO2 prior to removing the supernatant and adding 100 µL of DMSO. Plates were gently shaken to dissolve formazan crystals resulting from the MTT tetrazolium reduction by living cells and read at 570 nm with BioTek µQuant Microplate Spectrophotometer.

[2] = tested on: P. falciparum chloroquine-resistant strain FcB1-Columbia; assay: Antiplasmodial screen at 10 µM and chemosensitivity assay (SYBR Green I), FcB1-Columbia; format: cell-based, Plasmodium falciparum
[3] = tested on: P. falciparum F32-TEM (artemisinin-sensitive strain); assay: Standard chemosensitivity assay (SYBR Green I), F32-TEM; format: cell-based, Plasmodium falciparum
Description: (§2) F32-ART5, an artemisinin-resistant strain and F32-TEM, an artemisinin-sensitive strain, were obtained from the parental clone F32-Tanzania, respectively under regular drug pressure cycles of increasing artemisinin concentrations for 5 years and without any artemisinin pressure. After these drug pressure cycles allowing selection of the F32-ART5 strain, regular drug pressures were performed to maintain its phenotype. […] Briefly, parasites were cultured in RPMI 1640 (Fisher Scientific, Waltham, Illkirch-Graffenstaden, France) supplemented with 5% type AB human serum (Etablissement français du Sang, Toulouse, France) and adjusted at a parasitemia of 1% and 2% hematocrit with type O human at 37 °C and 5% CO2. Parasite development was daily monitored by Giemsa staining.
(§3) Briefly, for the determination of IC50 values, the chemosensitivity assay was carried out in 96-well culture plates on D-sorbitol ring-stage synchronized parasites and antiplasmodial activities were evaluated using the SYBR Green I method. Drug testing was performed in triplicates in a dose range of 5 to 7 concentrations. […] Parasites were left to proliferate with the given compounds for 48 h at 37 °C and 5% CO2. After this period, pellets were washed 3 times in sterile PBS prior to putting the plates at −20 °C overnight to lyse all red blood cells. The following day, the plates were thawed at room temperature, 100 µL of each well was transferred into a black 96-well plate to which another 100 µL of 2× PBS-diluted SYBR Green I (Sigma-Aldrich) was added and left to incubate for 2 h at room temperature prior to reading the plates on BioTek FL× 800 Microplate Fluorescence Reader (λexcitation = 485 nm, λemission = 528 nm).
(§4) IC50 values were determined using GraphPad Prism by drawing the curve % inhibition vs. [Drug] and using a four-parameter dose–response curve with the following equation: Y=Bottom+ Top−Bottom/1+x^Hill Slope/IC50Hill Slope

[4] = tested on: P. falciparum F32-ART5 (artemisinin-resistant strain); assay: Standard chemosensitivity assay (SYBR Green I), F32-ART5; format: cell-based, Plasmodium falciparum; details: ^1 n = 1, ^2 n = 2
Description: as §2, §3, §4

[5] = tested on: Vero cells; assay: Cytotoxicity assay (MTT); details: for Selectivity Index: ratio cytotoxicity (Vero)/activity on Plasmodium; for IC50: read-out: Cytotoxicity Mean IC50, Vero cell lines, 48 h, MTT
Description: as §1

[6] = tested on: Adult S. mansoni; assay: In vitro antischistosomal activity on adult worms; format: cell-based, Schistosoma mansoni; details: for Mean (±SD) survival time – Adult S. mansoni / Time for the death of 100% worms: 100 µg/mL; for Mean (±SD) survival time – Adult S. mansoni: observation up to 8 h (Table S1); for Time for the death of 100% worms / S. mansoni Mean Survival Time: adult S. mansoni, observation up to 8 h; for S. mansoni Mean Survival Time: single dose 100 µg/mL
How it was run: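 NMRI-strain adult worms, perfused from hamsters 42–47 days post-infection, held in RPMI 1640 (25 mM Hepes) with Tween 80/DMSO vehicle at 37 °C, 5% CO2 and exposed to 100 µg/mL drug, in duplicate. Moving worms counted hourly up to 8 h; no contraction over 30 s scored dead. Mean survival time from Kaplan–Meier analysis.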

[7] = design: method as in PMID 23051106, doi:10.1039/c2py20447a; details: cited from earlier work
[8] = Homolysis of the NO–C bond measured by EPR; details: for half-life: tert-butylbenzene
Description: Homolysis rate constants kd’ were measured by EPR and estimated using Equation (1) as reported many times in the literature. Further, Ea and kd were estimated using Equation (2). (1) ln([nitroxide]∞−[nitroxide]t/[nitroxide]∞)=−kd·t (2) Ea=−RT ln([…] kd′ )

[9] = tested on: P. falciparum F32-TEM (artemisinin-sensitive); assay: Recrudescence assay, F32-TEM; format: cell-based, Plasmodium falciparum; details: 48 h treatment; artemisinin 18 µM, (RS/SR)-2F 5 µM; followed 30 days
Description: (§5) The lead compound, (RS/SR)-2F, was tested in a recrudescence assay, to assess cross-resistance with artemisinin, according to Ménard et al.. Briefly, F32-TEM and F32-ART5 parasites were synchronized at ring-stage by D-sorbitol treatment prior to treating them with the drug of interest for 48 h, then washed and allowed to grow in drug-free medium. Parasitemia was monitored every other day for 30 days to determine the day when parasite cultures reached the t0 initial parasitemia. […] Artemisinin was used as control to confirm differences in recrudescence times between both strains. Three independent experiments were performed for (RS/SR)-2F and artemisinin tested in parallel.

[10] = tested on: P. falciparum F32-ART5 (artemisinin-resistant); assay: Recrudescence assay, F32-ART5; format: cell-based, Plasmodium falciparum; details: artemisinin 18 µM, (RS/SR)-2F 5 µM
Description: as §5

[11] = Plasmodium falciparum, F32, 48 h, read-out: P. falciparum Strains Mean IC50, F32-TEM, 48 h, ^1 n = 1, ^2 n = 2
[12] = Plasmodium falciparum, F32, 48 h, read-out: P. falciparum Strains Mean IC50, F32-ART5, 48 h
[13] = Cytotoxicity Mean IC50, Vero cell lines, 48 h, MTT
[14] = Plasmodium falciparum, FcB1-Columbia strain, read-out: IC50 on P. falciparum
[15] = read-out: IC50 on P. falciparum, FcB1-Columbia strain
[16] = Plasmodium falciparum, FCB1, read-out: IC50 on P. falciparum, FcB1-Columbia strain
[17] = FcB1-Columbia strain, read-out: IC50 on P. falciparum
[18] = 48 h, ^1 n = 1, ^2 n = 2, read-out: P. falciparum Strains Mean IC50, F32-TEM
[19] = 48 h, read-out: P. falciparum Strains Mean IC50, F32-ART5

SMILES	IC50 [3, 11] [µM]	IC50 [4, 12] [µM]	IC50 at 48 h [1, 13] [µM]	Selectivity Index [5]	Mean (±SD) survival time – Adult S. mansoni [6] [h]	Time for the death of 100% worms [6] [h]	S. mansoni Mean Survival Time [6] [h]	IC50 [5] [µM]	also measured
CCN(CC)CCCC(C)Nc1ccnc2cc(Cl)ccc12 (stereo not drawn) [Chloroquine, chloroquine, reference compound]	0.06 ± 0.02	0.06 ± 0.03	–	–	–	–	–	–	IC50 at 48 h [1]: 190 ± 56 µM; IC50 ([2]; Plasmodium falciparum, FCB1, read-out: IC50 on P. falciparum): 0.16 ± 0.036 µM
CCOP(=O)(OCC)[C@@H](N(O[C@H](C)c1ccncc1)C(C)(C)C)C(C)(C)C (relative stereo) [(RR/SS)-1a]	15	16	17 ± 7	1	> 8	> 8	>8	–	T1/2 in vitro at 37 °C ([7]; aqueous medium): 2 to 4 days; T1/2 in vitro at 37 °C ([7]; tert-butylbenzene): 17 days
CCc1cc(-c2ccccn2)nc(-c2ccccn2)c1 [compound 22, 4′-ethyl terpyridine]	0.24	0.23	–	22	> 8	> 8	>8	–	IC50 at 48 h ([1]; Vero cells): 5.3 ± 4.5 µM; IC50 [2, 14]: 0.91 ± 0.06 µM
CCOP(=O)(OCC)C(N(OC(C)c1cc(-c2ccccn2)nc(-c2ccccn2)c1)C(C)(C)CO)C(C)(C)C (stereo not drawn) [(RR/SS)-2F, Diethyl(1-((1-([2,2′:6′,2′′-terpyridin]-4′-yl)ethoxy)(1-hydroxy-2-methylpropan-2-yl)amino)-2,2-dimethylpropyl)phosphonate]	–	–	–	1	–	–	2.5 ± 0.2	0.7 ± 0.3	activation energy Ea ([8]; MeOH/water 1:1 pH = 7.4): 118.8 kJ/mol; re-estimated homolysis rate constant kd at 120 °C ([8]; MeOH/water 1:1 pH = 7.4): 38.9 10^−3 s^−1; half-lifetime t1/2 at 37 °C ([8]; MeOH/water 1:1 pH = 7.4 (aqueous medium)): 3.5 days; homolysis rate constant kd′ ([8]; MeOH/water 1:1 pH = 7.4, 81 °C): 7.1 10^−4s^−1; activation energy Ea ([8]; t-BuPh): 118.9 kJ/mol; half-lifetime t1/2 at 37 °C ([8]; t-BuPh): 3.5 days; re-estimated homolysis rate constant kd at 120 °C ([8]; t-BuPh): 38.4 10^−3 s^−1; homolysis rate constant kd′ ([8]; t-BuPh, 81 °C): 7.0 10^−4s^−1; IC50 [2, 15]: 0.2 µM; IC50 ([3]; read-out: P. falciparum Strains Mean IC50, F32-TEM, 48 h, ^1 n = 1, ^2 n = 2): 0.5 ± 0.1 µM; IC50 ([4]; read-out: P. falciparum Strains Mean IC50, F32-ART5, 48 h): 0.4 ± 0.1 µM
CCOP(=O)(OCC)[C@@H](N(O[C@@H](C)c1ccncc1)C(C)(C)C)C(C)(C)C (relative stereo) [(RS/SR)-1a]	7.6	11	28 ± 29	3	–	–	1.2 ± 0.1	–	IC50 [2, 16]: 3.8 µM; IC50 [2, 15]: > 3 µM; T1/2 in vitro at 37 °C ([7]; aqueous medium): 2 to 4 days; T1/2 in vitro at 37 °C ([7]; tert-butylbenzene): 17 days
CCOP(=O)(OCC)C(N(OC(C)c1cc(-c2ccccn2)nc(-c2ccccn2)c1)C(C)(C)C(=O)O)C(C)(C)C (stereo not drawn) [(RS/SR)-4F, 2-((1-([2,2′:6′,2′′-Terpyridin]-4′-yl)ethoxy)(1-(diethoxyphosphoryl)-2,2-dimethylpropyl)amino)-2-methylpropanoic acid]	2.9	4.7	15 ± 5	4	–	7	5.2 ± 0.2	–	IC50 [2, 16]: 2.9 µM
C[C@@H]1CC[C@H]2[C@@H](C)C(=O)O[C@@H]3O[C@@]4(C)CC[C@@H]1[C@]32OO4 [Artemisinin, reference compound]	0.02 ± 0.001	0.02 ± 0.002	–	8000	–	–	–	–	IC50 at 48 h ([1]; Vero cells): 160 ± 12 µM; Median (Range) Recrudescence Time, F32-TEM [9]: > 30 (16→30) Days; IC50 [2, 14]: 0.04 ± 0.007 µM; Median (Range) Recrudescence Time, F32-ART5 ([10]; 48 h treatment, followed 30 days): 9 (7–11) Days; Mean ± SEM Difference of Recrudescence Time ([10]; F32-TEM versus F32-ART5): > 16.3 ± 3.7 days
CCOP(=O)(OCC)C(N(OC(C)c1ccc2ccc3cccnc3c2n1)C(C)(C)C)C(C)(C)C (stereo not drawn) [1J]	–	–	–	–	1.1 ± 0.05	2	1.1 ± 0.1	6.2 ± 1.2	IC50 [2, 17]: 3.1 ± 1.1 µM; IC50 [3, 18]: 2.9 µM; IC50 [4, 19]: 2.3 µM
CC(ON1C(C)(C)CCCC1(C)C)c1ccncc1 (stereo not drawn) [9a]	–	–	–	–	3.0 ± 0.0	3	3.0 ± 0.0	40 ± 13	IC50 [2, 17]: 8 ± 3 µM; IC50 [3, 18]: 7.5 µM; IC50 [4, 19]: 13 µM
CCOP(=O)(OCC)C(N(OC(C)c1cc(-c2ccccn2)nc(-c2ccccn2)c1)C(C)(C)C=O)C(C)(C)C (stereo not drawn) [(RS/SR)-7F, Diethyl(1-((1-([2,2′:6′,2′′-terpyridin]-4′-yl)ethoxy)(2-methyl-1-oxopropan-2-yl)amino)-2,2-dimethylpropyl)phosphonate]	1.3	1.4	0.9 ± 0.4	0.6	–	3	2.7 ± 0.1	–	–
CC(ON1C(C)(C)CC(O)CC1(C)C)c1cc(-c2ccccn2)nc(-c2ccccn2)c1 (racemic) [(R/S)-8F, 1-(1-([2,2′:6′,2′′-Terpyridin]-4′-yl)ethoxy)-2,2,6,6-tetramethylpiperidin-4-ol]	1.3	1.1	–	0.5	–	5	5.0 ± 0.0	–	IC50 at 48 h ([1]; Vero cells): 0.7 ± 0.4 µM; activation energy Ea ([8]; t-BuPh): 133.3 ^k kJ/mol; re-estimated homolysis rate constant kd at 120 °C ([8]; t-BuPh): 0.46 10^−3 s^−1; homolysis rate constant kd′ ([8]; t-BuPh, 111 °C): 1.9 10^−4s^−1; half-life ([8]; half-lifetime t1/2 at 37 °C, t-BuPh): 941 days; half-life ([8]; t1/2 at 37 °C): 913 days; IC50 [2, 14]: 0.14 µM; IC50 ([3]; Plasmodium falciparum, F32, read-out: IC50 on the F32 strains, F32-TEM and F32-ART5 taken together): ~1 µM
CCOP(=O)(OCC)C(N(OC(C)c1ccc2ccc3cccnc3c2n1)C(C)(C)CO)C(C)(C)C (stereo not drawn) [2J]	–	–	–	–	1.0 ± 0.0	1	1.0 ± 0.0	17 ± 6.3	IC50 [2, 17]: 2.5 ± 1.5 µM; IC50 [3, 18]: 5 µM; IC50 [4, 19]: 4.6 µM
